In US9371265B2, “Compositions and methods related to inhibitors of JAK kinase” (EP PHARMA, INC., priority 2012, dated 2016):

Experiments:
EPHA2 = EPHA2 (Homo sapiens, UniProt P29317); assay: Kinase panel: EPHA2; format: biochemical; details: 10 μM EP009
Description: (§1) Achieving JAK3 selectivity remains a significant challenge in the development of new small molecules for the treatment of cancer and immune-derived diseases. As such, the inventors employed cell-based screening assays of small-molecule libraries based upon the chemical scaffold of the established JAK3 inhibitor NC1153 (Stepkowski et al., J Immunol. (2005), 175(7):4236-4246) EP009 (FIG. 2A) was selected as a lead compound due to improved intrinsic stability (>95% purity in various solvents at 37° C. for 24 hours; FIG. 3) and high-degree of JAK3 selectivity. To test JAK3 versus JAK2 specificity of EP009, the IL-2/JAK3-dependent Kit225, and IL-3/JAK2-dependent BaF/3 cell lines were used. Kit225 and BaF/3 cells growing in the presence of IL-2 or IL-3, respectively, were treated with ascending concentrations of EP009 for 12 hours and cellular JAK3 and JAK2 tyrosine phosphorylation levels detected by Western blot analysis (FIGS. 2B and 2C). Following densitometric analysis, EP009 was determined to dose-dependently reduce IL-2-mediated JAK3 tyrosine phosphorylation with a cellular 50% inhibitory concentration (IC50) between 10 and 20 μM (FIG. 2B). […] To globally evaluate specificity, the inhibitory activity of EP009 was measured against a panel of protein kinases distributed throughout the kinome using the scanEDGE profiling service (KINOMEscan). […]

[1] = system: IL-2/JAK3-dependent Kit225 cells; assay: Kit225 cell viability (MTS); format: cell-based, human
Description: (§2) FIGS. 2A-2F. […] (B) Kit225 or (C) BaF/3 cells cultured in the presence of IL-2 or IL-3, respectively, were treated with vehicle (PBS; lane a) or increasing amounts of EP009 (0-50 μM; lanes b-h) for 12 hours. Cells were then lysed, clarified, and immunoprecipitated (IP) with anti-JAK3 (α-JAK3) or anti-JAK2 (α-JAK2), and subjected to Western blot (WB) analysis with anti-phosphotyrosine (α-pY). Blots were stripped and reprobed with corresponding antibody to verify equivalent protein loading. (D) Immunopurified JAK3 was subjected to in vitro autokinase analysis after treatment with vehicle (DMSO; lanes a and b) or ascending concentrations of EP009 (0-10 μM; lanes c-f) for 1 hour at room temperature. […] (E) Kit225 or BaF/3 cells were cultured with increasing amounts of EP009 (0-10 μM) for 72 hours and cell viability measured with the MTS tetrazolium salt assay. Values represent mean absorbance (OD490-OD650 nm) normalized to vehicle (PBS) treated control cells, while error bars represent the standard deviation (n=3). (F) HEK293, HEPG2, or naïve primary human PBMCs were cultured with increasing amounts of EP009 (0-10 μM) for 72 hours and cell viability measured with the MTS tetrazolium salt assay. Values represent mean absorbance (OD490-OD650 nm) normalized to vehicle (PBS) treated control cells, while error bars represent the standard deviation (n=3). […]

[2] = system: IL-3/JAK2-dependent BaF/3 cells; assay: BaF/3 cell viability (MTS); format: cell-based, murine; details: identical concentrations of EP009 (up to 10 μM), 72 hours
Description: as §2

CDK9 = CDK9 (Homo sapiens, UniProt P50750); assay: Kinase panel: CDK9; format: biochemical; details: 10 μM EP009
Description: as §1

BMPR2 = BMPR2 (Homo sapiens, UniProt Q13873); assay: Kinase panel: BMPR2; format: biochemical; details: 10 μM EP009
Description: as §1

Sequence of EPHA2 (P29317 24-976): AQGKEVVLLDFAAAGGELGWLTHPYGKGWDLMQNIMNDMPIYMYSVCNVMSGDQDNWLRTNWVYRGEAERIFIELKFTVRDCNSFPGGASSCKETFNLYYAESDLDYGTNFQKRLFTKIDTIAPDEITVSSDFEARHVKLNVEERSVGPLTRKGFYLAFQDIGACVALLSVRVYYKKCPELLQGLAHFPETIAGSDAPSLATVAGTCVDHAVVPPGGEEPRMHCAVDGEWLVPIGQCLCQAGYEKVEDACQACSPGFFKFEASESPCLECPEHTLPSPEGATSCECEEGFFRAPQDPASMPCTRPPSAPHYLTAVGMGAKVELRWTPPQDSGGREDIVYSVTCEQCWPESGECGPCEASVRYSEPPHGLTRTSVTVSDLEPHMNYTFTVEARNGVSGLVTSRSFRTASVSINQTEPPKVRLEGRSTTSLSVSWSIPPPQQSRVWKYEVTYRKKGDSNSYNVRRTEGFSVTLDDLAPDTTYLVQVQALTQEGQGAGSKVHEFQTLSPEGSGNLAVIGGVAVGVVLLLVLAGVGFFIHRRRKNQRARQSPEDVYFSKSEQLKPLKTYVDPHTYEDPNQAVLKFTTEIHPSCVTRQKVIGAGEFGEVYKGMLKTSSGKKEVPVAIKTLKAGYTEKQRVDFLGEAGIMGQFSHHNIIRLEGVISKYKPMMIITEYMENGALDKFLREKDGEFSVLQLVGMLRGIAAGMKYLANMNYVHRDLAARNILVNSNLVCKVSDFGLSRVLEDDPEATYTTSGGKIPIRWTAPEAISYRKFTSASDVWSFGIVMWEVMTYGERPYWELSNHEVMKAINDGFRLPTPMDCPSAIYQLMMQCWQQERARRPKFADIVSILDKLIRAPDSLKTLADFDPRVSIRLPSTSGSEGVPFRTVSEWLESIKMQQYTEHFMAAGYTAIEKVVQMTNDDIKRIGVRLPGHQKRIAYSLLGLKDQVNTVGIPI
Sequence of CDK9 (P50750 whole entry): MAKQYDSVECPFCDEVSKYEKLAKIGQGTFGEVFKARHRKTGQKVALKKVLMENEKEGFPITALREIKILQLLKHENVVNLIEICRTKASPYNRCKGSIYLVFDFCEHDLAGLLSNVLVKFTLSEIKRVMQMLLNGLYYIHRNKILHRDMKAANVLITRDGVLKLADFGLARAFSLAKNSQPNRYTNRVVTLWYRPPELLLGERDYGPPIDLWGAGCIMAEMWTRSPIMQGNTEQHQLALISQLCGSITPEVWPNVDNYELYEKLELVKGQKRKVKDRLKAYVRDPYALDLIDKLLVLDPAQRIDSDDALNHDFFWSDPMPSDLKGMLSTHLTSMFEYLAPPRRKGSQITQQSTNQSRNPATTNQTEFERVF
Sequence of BMPR2 (Q13873 27-1038): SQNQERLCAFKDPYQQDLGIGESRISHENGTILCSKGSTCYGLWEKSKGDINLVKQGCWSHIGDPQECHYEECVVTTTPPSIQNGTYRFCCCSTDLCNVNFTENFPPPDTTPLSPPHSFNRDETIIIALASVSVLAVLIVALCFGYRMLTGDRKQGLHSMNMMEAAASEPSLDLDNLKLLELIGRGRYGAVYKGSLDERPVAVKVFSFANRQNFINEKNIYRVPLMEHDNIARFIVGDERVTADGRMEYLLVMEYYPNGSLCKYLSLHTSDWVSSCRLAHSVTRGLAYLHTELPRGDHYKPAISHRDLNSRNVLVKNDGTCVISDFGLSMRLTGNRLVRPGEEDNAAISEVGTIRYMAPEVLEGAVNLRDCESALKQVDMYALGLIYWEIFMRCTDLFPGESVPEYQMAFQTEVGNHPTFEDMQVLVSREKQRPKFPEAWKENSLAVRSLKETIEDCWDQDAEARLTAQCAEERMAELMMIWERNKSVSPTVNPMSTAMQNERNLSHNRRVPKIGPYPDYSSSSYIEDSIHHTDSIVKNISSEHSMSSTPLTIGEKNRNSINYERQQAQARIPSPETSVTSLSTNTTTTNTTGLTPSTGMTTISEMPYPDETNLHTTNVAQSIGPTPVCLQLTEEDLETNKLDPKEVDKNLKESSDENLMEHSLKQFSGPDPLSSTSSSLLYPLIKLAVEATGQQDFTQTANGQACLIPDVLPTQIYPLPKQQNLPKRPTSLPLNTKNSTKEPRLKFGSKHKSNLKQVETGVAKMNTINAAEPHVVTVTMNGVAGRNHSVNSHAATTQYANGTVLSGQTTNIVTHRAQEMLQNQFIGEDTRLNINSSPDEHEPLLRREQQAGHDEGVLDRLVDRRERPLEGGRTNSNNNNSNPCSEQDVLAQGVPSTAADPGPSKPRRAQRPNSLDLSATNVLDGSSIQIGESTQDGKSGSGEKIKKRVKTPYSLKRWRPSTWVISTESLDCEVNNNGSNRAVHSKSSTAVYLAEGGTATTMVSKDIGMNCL

C=C1CCCCCCCCCC(CO)C1=O (stereo not drawn) [EP009, 2-(Hydroxymethyl)-12-methylenecyclododecanone]
Kinase Activity (% of Control) (EPHA2): 100 % of Control
concentration resulting in maximal loss of Kit225 cell viability ([1]; 72 hours): 7.5 to 10 µM
cytotoxicity at 5 µM ([1]; Homo sapiens, Kit225, 5.0 μM EP009, 72 hours, read-out: reduction in cell viability): 55%
effect on BaF/3 cell viability [2]: no effect
Kinase Activity (% of Control) (CDK9): 90 % of Control
Kinase Activity (% of Control) (BMPR2): 75 % of Control
